The source of these data is patent US20260034113A1, “THIADIAZOLONE DERIVATIVES, COMPOSITIONS AND USES THEREOF” (Danatlas Pharmaceuticals Co., Ltd., priority 2023, published 2026).

Each structure is given as a SMILES string. Bounds are passed on as bounds.

For the first experiment, the target named is PolQ (1-899) (Homo sapiens (Human), UniProt O75417). In words: PolQ ATPase assay (ADP-Glo). In kind it is biochemical.
Sequence of PolQ (1-899) (O75417 1-899): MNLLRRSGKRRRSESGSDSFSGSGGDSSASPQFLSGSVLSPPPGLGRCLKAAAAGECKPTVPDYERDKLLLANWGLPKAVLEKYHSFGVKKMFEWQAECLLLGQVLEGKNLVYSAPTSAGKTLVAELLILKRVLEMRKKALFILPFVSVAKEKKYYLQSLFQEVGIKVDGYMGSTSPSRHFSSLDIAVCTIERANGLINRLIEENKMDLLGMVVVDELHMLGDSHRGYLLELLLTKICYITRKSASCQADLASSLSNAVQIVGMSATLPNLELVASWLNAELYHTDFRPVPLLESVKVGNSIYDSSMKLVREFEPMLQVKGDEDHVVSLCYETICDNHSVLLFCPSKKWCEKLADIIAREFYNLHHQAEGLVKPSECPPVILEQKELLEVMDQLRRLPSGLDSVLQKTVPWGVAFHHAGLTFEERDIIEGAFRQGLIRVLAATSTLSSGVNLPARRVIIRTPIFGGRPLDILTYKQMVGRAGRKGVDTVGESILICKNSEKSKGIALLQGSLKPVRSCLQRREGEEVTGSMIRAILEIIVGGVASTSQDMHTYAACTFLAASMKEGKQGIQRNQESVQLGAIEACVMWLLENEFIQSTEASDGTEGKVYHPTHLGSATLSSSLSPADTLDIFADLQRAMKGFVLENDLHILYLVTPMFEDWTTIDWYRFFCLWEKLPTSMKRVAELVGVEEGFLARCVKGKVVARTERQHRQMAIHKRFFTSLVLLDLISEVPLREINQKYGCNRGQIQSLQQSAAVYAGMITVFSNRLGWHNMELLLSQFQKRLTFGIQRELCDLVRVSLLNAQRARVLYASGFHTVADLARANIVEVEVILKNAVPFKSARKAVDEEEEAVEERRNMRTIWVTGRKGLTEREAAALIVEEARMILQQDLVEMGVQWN
Details: not given
The method, then: The ability of the compounds of the present disclosure to inhibit ATPase activity of PolQ (1-899) was determined using the assay described below.
PolQ ATPase activity was determined by ADP-Glo assay. 10-point dilution series of compounds were used in a 384 well format for the inhibition assays. PolQ (1-899) (1 nM) in assay buffer (20 mM Tris HCl (pH 8.0), 80 mM KCl, 10 mM MgCl2, 1 mM DTT, 0.01% BSA, 0.01% Tween, 5% glycerol) was transferred to the test wells (20 uL), except the low control wells (20 μL of assay buffer was added to the low control wells). The plate was then incubated at room temperature for 30 min. An equal volume (20 μL) of 100 μM ATP, 150 nM ssDNA containing 50 thymine bases in assay buffer was added to all the test wells. The plates were covered and left to incubate for 60 min. at room temperature before the addition of the ADP Glo detection reagents. After 60 min. incubation, transfer 5 μL reaction mix to another 384-well plate and add 5 μL ADP Glo and plates incubated for 60 min. before addition of 10 μL kinase detection reagent. After the addition of the kinase detection reagent, the plates were covered and incubated for 60 min. and read luminescence on Envision
Percent inhibition was calculated as follows:
[formula] • where “Max” is the high control (DMSO) and “Min” is the no enzyme control.
IC50 values were calculated using a four-parameter logistic curve fit using the following formula: […]
IC50 values were determined by fitting the data to the standard 4 parameters with Hill Slope using GraphPad Prism software.
On the technique in general: ADP-Glo turns the ADP formed in a reaction into a luminescent signal.
Turning to `COc1ccc(Cl)c(F)c1-c1cc(C)ncc1C(=O)Nc1nn(CC(=O)N2CC[C@@H](N(C)C)C2)c(=O)s1` [Example 9, 4-(3-Chloro-2-fluoro-6-methoxyphenyl)-N-(4-(2-((R)-3-(dimethylamino)pyrrolidin-1-yl)-2-oxoethyl)-5-oxo-4,5-dihydro-1,3,4-thiadiazol-2-yl)-6-methylnicotinamide], the IC50 (in general, the concentration at which inhibition is half-maximal) lay in the range of 10 to 100 nM.
The same measure, in the same setting: the result for `COc1ccc(Cl)c(F)c1-c1cc(C)ncc1C(=O)Nc1nn(CC(=O)N2CC[C@H](N(C)C)C2)c(=O)s1` [Example 10, 4-(3-Chloro-2-fluoro-6-methoxyphenyl)-N-(4-(2-((S)-3-(dimethylamino)pyrrolidin-1-yl)-2-oxoethyl)-5-oxo-4,5-dihydro-1,3,4-thiadiazol-2-yl)-6-methylnicotinamide] reads 10 to 100 nM.

The experiment is the same for the next values; noted with them: inhibition of ATPase activity of PolQ (1-899), 1 nM enzyme, 100 μM ATP, 150 nM ssDNA, ADP-Glo.
Compound `COCCn1nc(NC(=O)c2cnc(C)cc2-c2c(OC)ccc(Cl)c2F)sc1=O` [Example 1, 4-(3-Chloro-2-fluoro-6-methoxyphenyl)-N-(4-(2-methoxyethyl)-5-oxo-4,5-dihydro-1,3,4-thiadiazol-2-yl)-6-methylnicotinamide] showed an IC50 below 10 nM.
On the same count and under the same terms, the result for `COc1ccc(Cl)c(F)c1-c1cc(C)ncc1C(=O)Nc1nn(CC(F)(F)F)c(=O)s1` [Example 2, 4-(3-Chloro-2-fluoro-6-methoxyphenyl)-6-methyl-N-(5-oxo-4-(2,2,2-trifluoroethyl)-4,5-dihydro-1,3,4-thiadiazol-2-yl)nicotinamide] reads below 10 nM; that for `CCn1nc(NC(=O)c2cnc(C)cc2-c2c(OC)ccc(Cl)c2F)sc1=O` [Example 3, 4-(3-Chloro-2-fluoro-6-methoxyphenyl)-N-(4-ethyl-5-oxo-4,5-dihydro-1,3,4-thiadiazol-2-yl)-6-methylnicotinamide], below 10 nM.
Compound `COCCCn1nc(NC(=O)c2cnc(C)cc2-c2c(OC)ccc(Cl)c2F)sc1=O` [Example 4, 4-(3-Chloro-2-fluoro-6-methoxyphenyl)-N-(4-(3-methoxypropyl)-5-oxo-4,5-dihydro-1,3,4-thiadiazol-2-yl)-6-methylnicotinamide] gave an IC50 below 10 nM.
For the compound `COCCCCn1nc(NC(=O)c2cnc(C)cc2-c2c(OC)ccc(Cl)c2F)sc1=O` [Example 5, 4-(3-Chloro-2-fluoro-6-methoxyphenyl)-N-(4-(4-methoxybutyl)-5-oxo-4,5-dihydro-1,3,4-thiadiazol-2-yl)-6-methylnicotinamide], the half-inhibitory concentration (IC50) was below 10 nM.
On the same count and under the same terms, the result for `COc1ccc(Cl)c(F)c1-c1cc(C)ncc1C(=O)Nc1nn(CCO)c(=O)s1` [Example 6, 4-(3-Chloro-2-fluoro-6-methoxyphenyl)-N-(4-(2-hydroxyethyl)-5-oxo-4,5-dihydro-1,3,4-thiadiazol-2-yl)-6-methylnicotinamide] reads below 10 nM; that for `COc1ccc(Cl)c(F)c1-c1cc(C)ncc1C(=O)Nc1nn(CCCO)c(=O)s1` [Example 7, 4-(3-Chloro-2-fluoro-6-methoxyphenyl)-N-(4-(3-hydroxypropyl)-5-oxo-4,5-dihydro-1,3,4-thiadiazol-2-yl)-6-methylnicotinamide], below 10 nM; that for `COc1ccc(Cl)c(F)c1-c1cc(C)ncc1C(=O)Nc1nn(CC(=O)O)c(=O)s1` [Example 8, 2-(5-(4-(3-Chloro-2-fluoro-6-methoxyphenyl)-6-methylnicotinamido)-2-oxo-1,3,4-thiadiazol-3(2H)-yl)acetic acid], below 10 nM.
Same read-out and setting: the result for `COc1ccc(Cl)c(F)c1-c1cc(C)ncc1C(=O)Nc1nn(CCC#N)c(=O)s1` [Example 11, 4-(3-Chloro-2-fluoro-6-methoxyphenyl)-N-(4-(2-cyanoethyl)-5-oxo-4,5-dihydro-1,3,4-thiadiazol-2-yl)-6-methylnicotinamide] reads below 10 nM; that for `COc1ccc(Cl)c(F)c1-c1cc(C)ncc1C(=O)Nc1nn(CCCC#N)c(=O)s1` [Example 12, 4-(3-Chloro-2-fluoro-6-methoxyphenyl)-N-(4-(3-cyanopropyl)-5-oxo-4,5-dihydro-1,3,4-thiadiazol-2-yl)-6-methylnicotinamide], below 10 nM; that for `COc1ccc(C(F)(F)F)c(F)c1-c1cc(C)ncc1C(=O)Nc1nn(CCCO)c(=O)s1` [Example 13, 4-(2-Fluoro-6-methoxy-3-(trifluoromethyl)phenyl)-N-(4-(3-hydroxypropyl)-5-oxo-4,5-dihydro-1,3,4-thiadiazol-2-yl)-6-methylnicotinamide], below 10 nM.
In turn, `COc1ccc(Cl)c(F)c1-c1cc(C)ncc1C(=O)Nc1nn(CCCCO)c(=O)s1` [Example 14, 4-(3-Chloro-2-fluoro-6-methoxyphenyl)-N-(4-(4-hydroxybutyl)-5-oxo-4,5-dihydro-1,3,4-thiadiazol-2-yl)-6-methylnicotinamide] yielded an IC50 below 10 nM.
On the same count and under the same terms, the result for `COc1ccc(Cl)c(F)c1-c1cc(C)ncc1C(=O)Nc1nn(CCC(C)(C)O)c(=O)s1` [Example 15, 4-(3-Chloro-2-fluoro-6-methoxyphenyl)-N-(4-(3-hydroxy-3-methylbutyl)-5-oxo-4,5-dihydro-1,3,4-thiadiazol-2-yl)-6-methylnicotinamide] reads below 10 nM.
The same measure, in the same setting: the result for `COc1ccc(Cl)c(F)c1-c1cc(C)ncc1C(=O)Nc1nn(CCC(C)O)c(=O)s1` (stereo not shown) [Example 16, 4-(3-Chloro-2-fluoro-6-methoxyphenyl)-N-(4-(3-hydroxybutyl)-5-oxo-4,5-dihydro-1,3,4-thiadiazol-2-yl)-6-methylnicotinamide] reads below 10 nM; that for `COc1ccc(Cl)c(F)c1-c1cc(C)ncc1C(=O)Nc1nn(CC2CC(O)C2)c(=O)s1` (stereo not shown) [Example 17, 4-(3-Chloro-2-fluoro-6-methoxyphenyl)-N-(4-((3-hydroxycyclobutyl)methyl)-5-oxo-4,5-dihydro-1,3,4-thiadiazol-2-yl)-6-methylnicotinamide], below 10 nM.
Still for that read-out and setting: the result for `COc1ccc(Cl)c(F)c1-c1cc(C)ncc1C(=O)Nc1nn(CCn2cccn2)c(=O)s1` [Example 18, N-(4-(2-(1H-pyrazol-1-yl)ethyl)-5-oxo-4,5-dihydro-1,3,4-thiadiazol-2-yl)-4-(3-chloro-2-fluoro-6-methoxyphenyl)-6-methylnicotinamide] reads below 10 nM; that for `COc1ccc(Cl)c(F)c1-c1cc(C)ncc1C(=O)Nc1nn(CC(C)O)c(=O)s1` (stereo not shown) [Example 20, 4-(3-Chloro-2-fluoro-6-methoxyphenyl)-N-(4-(2-hydroxypropyl)-5-oxo-4,5-dihydro-1,3,4-thiadiazol-2-yl)-6-methylnicotinamide], below 10 nM; that for `CCC(O)Cn1nc(NC(=O)c2cnc(C)cc2-c2c(OC)ccc(Cl)c2F)sc1=O` (stereo not shown) [Example 21, 4-(3-Chloro-2-fluoro-6-methoxyphenyl)-N-(4-(2-hydroxybutyl)-5-oxo-4,5-dihydro-1,3,4-thiadiazol-2-yl)-6-methylnicotinamide], below 10 nM.
In turn, `COc1ccc(Cl)c(F)c1-c1cnccc1C(=O)Nc1nn(CCCCO)c(=O)s1` [Example 22, 3-(3-Chloro-2-fluoro-6-methoxyphenyl)-N-(4-(4-hydroxybutyl)-5-oxo-4,5-dihydro-1,3,4-thiadiazol-2-yl)isonicotinamide] registered an IC50 below 10 nM.
Still for that read-out and setting: the result for `COc1ccccc1-n1cncc1C(=O)Nc1nn(CCCCO)c(=O)s1` [Example 23, N-(4-(4-Hydroxybutyl)-5-oxo-4,5-dihydro-1,3,4-thiadiazol-2-yl)-1-(2-methoxyphenyl)-1H-imidazole-5-carboxamide] reads above 500 nM.
